Reference: patent US6713475B2, “Tricyclic benzodiazepines as vasopressin receptor antagonists” (Ortho-McNeil Pharmaceutical, Inc., priority 1999, dated 2004)

Biological target: V2 (Homo sapiens, UniProt P30518)
Assay: In vitro recombinant vasopressin receptor binding assay (V2 Bdg), displacement of 3H-arginine vasopressin
Set-up: expressed in transfected cells; host or cells: HEK-293
Conditions: for V2 Bdg % inh: 0.1 uM, printed in parentheses in place of IC50; for IC50: membrane with cloned human V-2 receptor (HEK-293); for inhibition at 0.1 µM: read-out: V2 Bdg % inh
Experimental: In vitro Recombinant Vasopressin Receptor Binding Assay
Compounds were assessed for their ability to displace ^3H-arginine vasopressin from the human V-1 or V-2 receptor in HEK-293 cells. […] Into wells of 96-well round bottom polypropylene plates were added buffer, test compound, membrane (containing cloned human V-1 or V-2 receptor), and ^3H-vasopressin. The reaction plates were allowed to sit at room temperature for one hour. The samples were filtered through Unifilter GF/C plates (presoaked in 0.3 polyethyleneimine). The plates were washed 5 times with cold physiological saline containing 0.05% Tween 20. After drying, the bottom of the filter plates were sealed and 0.025 ml of Microscint-20 was added to each filter. The top of the plate was sealed, and the plate was counted.

CC(C)N1CCN2Cc3ccccc3N(C(=O)c3ccc(NC(=O)c4ccccc4-c4ccccc4)cc3Cl)CC2C1 (racemic) [Compound 60, (RS)-2-Phenyl-N-[3-chloro-4-(1,3,4,12a-tetrahydro-2-isopropyl-6H-[1,4]pyrazino[4,3-a][1,4]-benzodiazepin-11(12H)-yl-carbonyl)phenyl]benzamide]
V2 Bdg % inh: (25%/0.1 uM)

Cc1cc(NC(=O)c2ccccc2-c2ccccc2)ccc1C(=O)N1CC2CSCCN2Cc2ccccc21 (racemic) [Compound 107, (RS)-2-Phenyl-N-[3-methyl-4-(1,3,4,12a-tetrahydro-6H-[1,4]thiazino[4,3-a][1,4]-benzodiazepin-11(12H)-yl-carbonyl)phenyl]benzamide]
IC50: 21 nM

(RS)-2-(3-Thienyl)-N-[4-(1,3,4,12a-tetrahydro-6H-[1,4]thiazino[4,3-a][1,4]-benzodiazepin-11(12H)-yl-carbonyl)phenyl]benzamide [Compound 49]
V2 Bdg % inh: (59%/0.1 uM)

O=C(Nc1ccc(C(=O)N2CC3COCCN3Cc3ccccc32)c(Cl)c1)c1ccc(F)cc1-c1ccccc1 (racemic) [Compound 114, (RS)-2-Phenyl-4-fluoro-N-[3-chloro-4-(1,3,4,12a-tetrahydro-6H-[1,4]oxazino[4,3-a][1,4]-benzodiazepin-11(12H)-yl-carbonyl)phenyl]benzamide]
IC50: 4 nM

O=C(Nc1ccc(C(=O)N2CC3CSCCN3Cc3ccccc32)cc1)c1ccccc1-c1cccs1 (racemic) [Compound 52, (RS)-2-(2-Thienyl)-N-[4-(1,3,4,12a-tetrahydro-6H-[1,4]thiazino[4,3-a][1,4]-benzodiazepin-11(12H)-yl-carbonyl)phenyl]benzamide]
V2 Bdg % inh: (36%/0.1 uM)

Cc1ccc(-c2ccccc2C(=O)Nc2ccc(C(=O)N3CC4CN(C)CCN4Cc4ccccc43)c(Cl)c2)cc1 (racemic) [Compound 66, (RS)-2-(4-Methyl-phenyl)-N-[3-chloro-4-(1,3,4,12a-tetrahydro-2-methyl-6H-[1,4]pyrazino[4,3-a][1,4]-benzodiazepin-11(12H)-yl-carbonyl)phenyl]benzamide]
V2 Bdg % inh: (82%/0.1 uM)

Cc1ccc(-c2ccccc2C(=O)Nc2ccc(C(=O)N3CC4CN(C)CCN4Cc4ccccc43)cc2C)cc1 (racemic) [Compound 79, (RS)-2-(4-Methyl-phenyl)-N-[2-methyl-4-(1,3,4,12a-tetrahydro-2-methyl-6H-(1,4]pyrazino[4,3-a][1,4]-benzodiazepin-11(12H)-yl-carbonyl)phenyl]benzamide]
V2 Bdg % inh: (33%/0.1 uM)

COc1cc(NC(=O)c2ccccc2-c2ccccc2)ccc1C(=O)N1CC2CSCCN2Cc2ccccc21 (racemic) [Compound 108, (RS)-2-Phenyl-N-[3-methoxy-4-(1,3,4,12a-tetrahydro-6H-[1,4]thiazino[4,3-a][1,4]-benzodiazepin-11(12H)-yl-carbonyl)phenyl)benzamide]
IC50: 32 nM

(RS)-2,6-Dimethyl-N-[3-chloro-4-(1,3,4,12a-tetrahydro-2-methyl-6H-[1,4]pyrazino[4,3-a][1,4]-benzodiazepin-11(12H)-yl-carbonyl)phenyl]benzamide [Compound 63]
V2 Bdg % inh: (9%/0.1 uM)

O=C(Nc1ccc(C(=O)N2CC3CNCCN3Cc3ccccc32)cc1)c1ccccc1-c1ccccc1 (racemic) [Compound 58, (RS)-2-Phenyl-N-[4-(1,3,4,12a-tetrahydro-6H-[1,4]pyrazino[4,3-a][1,4]-benzodiazepin-11(12H)-yl-carbonyl)phenyl]benzamide]
V2 Bdg % inh: (33%/0.1 uM)

O=C(Nc1ccc(C(=O)N2C[C@@H]3COCCN3Cc3ccccc32)c(Cl)c1)c1ccccc1-c1ccccc1 [Compound 13, (R)-2-Phenyl-N-[3-chloro-4-(1,3,4,12a-tetrahydro-6H-[1,4]oxazino[4,3-a][1,4]-benzodiazepin-11(12H)-yl-carbonyl)phenyl]benzamide]
IC50: 32 nM

O=C(Nc1ccc(C(=O)N2CC3CSCCN3Cc3ccccc32)c(O)c1)c1ccccc1-c1ccccc1 (racemic) [Compound 109, (RS)-2-Phenyl-N-[3-hydroxy-4-(1,3,4,12a-tetrahydro-6H-[1,4]thiazino[4,3-a][1,4]-benzodiazepin-11(12H)-yl-carbonyl)phenyl]benzamide]
IC50: 7 nM

O=C(Nc1ccc(C(=O)N2CC3CSCCN3Cc3ccccc32)c(Cl)c1)c1cc(F)ccc1-c1ccccc1 (racemic) [Compound 104, (RS)-2-Phenyl-5-fluoro-N-[3-chloro-4-(1,3,4,12a-tetrahydro-6H-[1,4]thiazino[4,3-a][1,4]-benzodiazepin-11(12H)-yl-carbonyl)phenyl]benzamide]
IC50: 79 nM

CN1CCN2Cc3ccccc3N(C(=O)c3ccc(NC(=O)c4cccc(Cl)c4F)cc3Cl)CC2C1 (racemic) [Compound 65, (RS)-2-Fluoro-3-chloro-N-[3-chloro-4-(1,3,4,12a-tetrahydro-2-methyl-6H-[1,4]pyrazino[4,3-a][1,4]-benzodiazepin-11(12H)-yl-carbonyl)phenyl]benzamide]
V2 Bdg % inh: (17%/0.1 uM)

(RS)-2-Methyl-5-fluoro-N-[3-chloro-4-(1,3,4,12a-tetrahydro-2-methyl-6H-[1,4]pyrazino[4,3-a][1,4]-benzodiazepin-11(12H)-yl-carbonyl)phenyl]benzamide [Compound 94]
V2 Bdg % inh: (39%/0.1 uM)

COc1ccc(-c2ccccc2C(=O)Nc2ccc(C(=O)N3CC4COCCN4Cc4ccccc43)c(Cl)c2)cc1 (racemic) [Compound 112, (RS)-2-(4-Methoxy-phenyl)-N-[3-chloro-4-(1,3,4,12a-tetrahydro-6H-[1,4]oxazino[4,3-a][1,4]-benzodiazepin-11(12H)-yl-carbonyl)phenyl]benzamide]
IC50: 6 nM

COc1cccc2c1N(C(=O)c1ccc(NC(=O)c3ccccc3-c3ccccc3)cc1)CC1CSCCN1C2 (racemic) [Compound 40, (RS)-2-Phenyl-N-[4-(10-methoxy-1,3,4,12a-tetrahydro-6H-[1,4]thiazino[4,3-a][1,4]-benzodiazepin-11(12H)-yl-carbonyl)phenyl]benzamide]
inhibition at 0.1 µM: 12%

Cc1csc(-c2ccccc2C(=O)Nc2ccc(C(=O)N3CC4COCCN4Cc4ccccc43)cc2)c1 (racemic) [Compound 54, (RS)-2-(4-Methyl-2-thienyl)-N-[4-(1,3,4,12a-tetrahydro-6H-[1,4]oxazino[4,3-a][1,4]-benzodiazepin-11(12H)-yl-carbonyl)phenyl]benzamide]
inhibition at 0.1 µM: 57%

CN1CCN2Cc3ccccc3N(C(=O)c3ccc(NC(=O)c4ccccc4-c4ccccc4)cc3C(F)(F)F)CC2C1 (racemic) [Compound 75, (RS)-2-Phenyl-N-[3-trifluoromethyl-4-(1,3,4,12a-tetrahydro-2-methyl-6H-[1,4]pyrazino[4,3-a][1,4]-benzodiazepin-11(12H)-yl-carbonyl)phenyl]benzamide]
V2 Bdg % inh: (2%/0.1 uM)

O=C(Nc1ccc(C(=O)N2CC3CSCCN3Cc3ccccc32)c(F)c1)c1ccccc1-c1ccccc1 (racemic) [Compound 106, (RS)-2-Phenyl-N-[3-fluoro-4-(1,3,4,12a-tetrahydro-6H-[1,4]thiazinol[4,3-a][1,4]-benzodiazepin-11(12H)-yl-carbonyl)phenyl]benzamide]
IC50: 22 nM
